Assay results from PMC12214830, “The human RIF1-Long isoform interacts with BRCA1 to promote recombinational fork repair under DNA replication stress” (Nature Communications, 2025).

Tested on: RIF1-L phosphoS2265
Test: Western blot, RIF1-L phosphoS2265, HeLa cells
Assay type: cell-based, human
Details: HU 4 mM 24 h
Description: Cells were harvested in 10 mM Tris-HCl pH 7.5, 2 mM EDTA buffer and lysed with laemmli sample buffer (Bio-Rad, 1610737, supplemented with 5% β-mercaptoethanol). Samples were heated at 95 °C for 15 min and centrifuged at 13,000 × g for 15 min. Protein concentrations were measured by RC DC Protein Assay (Bio-Rad, 5000122). Equal amounts of total proteins for each sample were separated in Mini-PROTEAN TGX Stain-free Precast Gels (Bio-Rad) by SDS-PAGE. Gels were at this stage imaged with the ChemiDoc Touch Imaging System (Bio-Rad) using the ‘Protein gel – Stain free’ module to obtain stain-free gel images. Proteins on gel were transferred to PVDF membranes (Bio-Rad, 1704274) using the Trans-Blot Turbo Blotting System (Bio-Rad). Membranes were blocked in 3% BSA in TBS-T (1x TBS supplemented with 0.1% Tween-20) at RT for 1 h, followed by incubation with primary antibodies overnight at 4 °C. Membranes were washed with TBS-T and then incubated with secondary antibodies for 1 h at RT. The blots were developed with Clarity ECL reagents (Bio-Rad, 1705060) and imaged with the ChemiDoc Touch Imaging System (Bio-Rad). Primary antibodies used for western blotting include anti-RIF1 (Bethyl Laboratories, A300-568A. 1:5000); anti-RIF1-L-Phospho-S2265 (amsbio, custom. 1:5000); anti-BRCA1 (D-9) (Santa Cruz Biotechnology, sc-6954. 1:1000); anti-BARD1 (Bethyl Laboratories, A300-263A. 1:1000); anti-53BP1 (Novus Biologicals, NB100-94. 1:5000); anti-PP1α (G4) (Santa Cruz Biotechnology, sc-271762. 1:1000); anti-Tubulin (YOL1/34) (Santa Cruz Biotechnology, sc-53030. 1:4000); anti-FLAG (M2) (Sigma-Aldrich, F1804. 1:2000); anti-GFP (Chromotek, 3h9. 1:2000); anti-RFP (Chromotek, 5f8. 1:2000). Uncropped and unprocessed Western Blot images are provided in the Source Data file.

NC(=O)NO [HU, hydroxyurea]
RIF1-L phosphoS2265 western blot signal: reduced RIF1-L phosphoS^2265 signal
